For assay [1], the target named is T1, human recombinant histamine H1 receptor (Homo sapiens, UniProt P35367).
T1 construct: expressed in transfected cells; host or cells: CHO cells
Briefly: Histamine H1 radioligand binding ([3H]Pyrilamine). To be noted: for inhibition at 1 µM: compounds screened at 1 μM, read-out: Inhibition of ligand binding, Hist. H1 (percent inhibition of specific binding). A digest of the protocol:
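Receptor expressed in CHO cells, assayed in 50 mM Tris-HCl pH 7.4 with 2 mM MgCl2, 100 mM NaCl, 250 mM sucrose. Compounds tested at 1 μM in 1% DMSO; non-specific binding set with 1 μM pyrilamine. Filter-bound radioactivity counted; values are percent inhibition of specific binding.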

Assay [2] deals with T2, human recombinant adrenergic α2B receptor (Homo sapiens, UniProt P18089).
T2 construct: expressed in transfected cells; host or cells: CHO-K1 cells
T2 sequence (P18089 1-450): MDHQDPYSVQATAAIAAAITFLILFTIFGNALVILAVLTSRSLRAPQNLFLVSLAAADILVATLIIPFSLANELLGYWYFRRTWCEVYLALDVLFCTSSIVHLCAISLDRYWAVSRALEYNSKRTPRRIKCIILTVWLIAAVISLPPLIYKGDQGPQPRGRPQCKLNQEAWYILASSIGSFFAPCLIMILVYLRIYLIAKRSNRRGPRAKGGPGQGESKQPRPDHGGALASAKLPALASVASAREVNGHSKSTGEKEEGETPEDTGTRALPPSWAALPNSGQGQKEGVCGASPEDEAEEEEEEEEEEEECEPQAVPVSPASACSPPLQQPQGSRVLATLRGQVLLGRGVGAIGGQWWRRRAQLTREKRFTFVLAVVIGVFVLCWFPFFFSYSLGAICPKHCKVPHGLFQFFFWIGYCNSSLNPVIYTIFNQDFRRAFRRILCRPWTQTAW
Briefly: Adrenergic α2B radioligand binding ([3H]Rauwolscine). To be noted: for inhibition at 1 µM: compounds screened at 1 μM, read-out: Inhibition of ligand binding, Adren. alpha2B (percent inhibition of specific binding). A digest of the protocol: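 Membranes from CHO-K1 cells expressing the receptor, in 50 mM Tris-HCl pH 7.4 with 12.5 mM MgCl2, 1 mM EDTA, 0.2% BSA, incubated with compounds and 2.5 nM [3H]Rauwolscine for 60 minutes at 25 °C.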

Assay [3] has as its target T3, human recombinant adrenergic α1D receptor (Homo sapiens, UniProt P25100).
T3 construct: expressed in transfected cells; host or cells: HEK-293 cells
T3 sequence (P25100 1-572): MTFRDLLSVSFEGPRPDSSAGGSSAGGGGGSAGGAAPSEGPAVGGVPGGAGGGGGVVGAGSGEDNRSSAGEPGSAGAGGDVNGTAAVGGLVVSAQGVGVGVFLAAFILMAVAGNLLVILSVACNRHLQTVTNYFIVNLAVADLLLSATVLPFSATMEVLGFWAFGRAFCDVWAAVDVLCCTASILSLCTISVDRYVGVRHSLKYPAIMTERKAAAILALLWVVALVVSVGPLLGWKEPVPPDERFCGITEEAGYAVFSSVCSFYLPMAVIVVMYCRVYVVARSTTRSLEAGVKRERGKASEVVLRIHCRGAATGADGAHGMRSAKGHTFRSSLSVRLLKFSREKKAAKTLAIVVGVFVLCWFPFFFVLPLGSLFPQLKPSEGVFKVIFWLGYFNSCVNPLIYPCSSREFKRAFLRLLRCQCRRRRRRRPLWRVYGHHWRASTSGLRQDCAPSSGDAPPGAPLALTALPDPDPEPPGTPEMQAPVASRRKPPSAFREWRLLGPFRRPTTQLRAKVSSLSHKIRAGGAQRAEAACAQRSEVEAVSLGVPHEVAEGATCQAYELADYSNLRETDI
As to the kind of experiment: Adrenergic α1D radioligand binding ([3H]Prozosin). Conditions: for inhibition at 1 µM: compounds screened at 1 μM, read-out: Inhibition of ligand binding, Adren. alpha1D (percent inhibition of specific binding). As to the method:
Compounds of invention were incubated with 0.6 nM [^3H]Prozosin for 60 minutes at 25° C. Non-specific binding was estimated in the presence of 10 μM phentolamine. Receptor proteins were filtered and washed, the filters were then counted to determine [^3H]Prozosin specifically bound. […] Biochemical assay results are presented as the percent inhibition of specific binding in Table 6.

This is an account of results in patent publication US9096591B2, “Tetracyclic compounds” (Medivation Technologies, Inc., priority 2007, dated 2015).

SMILES strings stand for the structures.

The term inhibition denotes the relative decrease from the control value, in per cent.

T1 sequence (P35367 whole entry): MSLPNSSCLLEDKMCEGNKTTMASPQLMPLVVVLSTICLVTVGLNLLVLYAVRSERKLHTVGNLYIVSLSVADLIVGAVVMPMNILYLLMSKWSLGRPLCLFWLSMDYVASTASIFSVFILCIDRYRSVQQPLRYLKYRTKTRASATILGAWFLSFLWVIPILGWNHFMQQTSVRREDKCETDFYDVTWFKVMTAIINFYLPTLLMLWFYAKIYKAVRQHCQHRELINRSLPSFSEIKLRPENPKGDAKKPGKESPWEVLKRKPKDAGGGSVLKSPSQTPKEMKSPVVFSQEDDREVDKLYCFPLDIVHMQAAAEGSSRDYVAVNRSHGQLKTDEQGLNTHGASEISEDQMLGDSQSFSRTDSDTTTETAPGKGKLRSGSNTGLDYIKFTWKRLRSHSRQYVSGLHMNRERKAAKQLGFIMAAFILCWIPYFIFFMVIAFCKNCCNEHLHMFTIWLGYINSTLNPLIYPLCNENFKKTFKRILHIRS

For `CN1CCc2c(c3ncccc3n2CCc2ccccn2)C1` [Compound 484, 9-aza-2-methyl-5-(2-(pyridin-2-yl)ethyl)-2,3,4,5-tetrahydro-1H-pyrido[4,3-b]indole], the inhibition at 1 µM in assay [1] was determined as 7%; in assay [2], 30%; in assay [3], 10%.
On the same counts, the results for `Cc1ccc(CCn2c3c(c4cc(I)ccc42)CN(C)CC3)cn1` [Compound 485, 2,3,4,5-tetrahydro-8-iodo-2-methyl-5-(2-(6-methylpyridin-3-yl)ethyl)-1H-pyrido[4,3-b]indole] are 105%, 98% and 69%.
`CN1CCc2c(c3cc(I)ccc3n2CC(=O)N2CCCCC2)C1` [Compound 486, 2-(1,2,3,4-tetrahydro-8-iodo-2-methylpyrido[4,3-b]indol-5-yl)-1-(piperidin-1-yl)ethanone]: the inhibition at 1 µM in assay [1] came out at 28%; in assay [2], 7%; in assay [3] it was 22%.
Regarding `Cc1ccc(CCn2c3c(c4cc(Br)ccc42)CN(C)CC3)cn1` [Compound 487, 8-bromo-2-methyl-5-(2-(6-methylpyridin-3-yl)ethyl)-2,3,4,5-tetrahydro-1H-pyrido[4,3-b]indole], the inhibition at 1 µM in assay [1] came to 98%; in assay [2] it was 100%; in assay [3], 90%.
With `CN1CCc2c(c3cc(Br)ccc3n2CC(=O)N2CCCCC2)C1` [Compound 516, 2-(8-bromo-2-methyl-3,4-dihydro-1H-pyrido[4,3-b]indol-5(2H)-yl)-1-(piperidin-1-yl)ethanone], the inhibition at 1 µM in assay [1] came out at 49%; in assay [2] it was 21%; in assay [3], 26%.
With `Cc1ccc2c(c1)c1c(n2CCc2nc(-c3ccccc3)cs2)CCN(C)C1` [Compound C1-5], the inhibition at 1 µM in assay [1] is 100%; in assay [2], 113%; in assay [3] it was 92%.
Turning to `COc1ccc2c(c1)c1c(n2CCc2nc(-c3ccccc3)cs2)CCN(C)C1` [Compound C1-6], the inhibition at 1 µM came to 104% in assay [1], 110% in assay [2] and 72% in assay [3].
On the same counts, the results for `CN1CCc2c(c3cc(F)ccc3n2CCc2nc(-c3ccccc3)cs2)C1` [Compound C1-7] are 99%, 113% and 66%.
`CN1CCc2c(c3ccccc3n2CCc2noc(-c3ccccc3)n2)C1` [Compound C4-1]: the inhibition at 1 µM in assay [1] was found to be 93%; in assay [2] it was 94%; in assay [3], 60%.
On the same counts, the results for `Cc1ccc2c(c1)c1c(n2CCc2noc(-c3ccccc3)n2)CCN(C)C1` [Compound C4-4] are 101%, 102% and 92%.
On the same counts, the results for `CN1CCc2c(c3cc(Cl)ccc3n2CCc2noc(-c3ccccc3)n2)C1` [Compound C4-6] are 100%, 94% and 84%.
As for `Cc1ccc2c(c1)c1c(n2CCc2ccc(C)nc2)CC[N+](C)([O-])C1` (stereo not drawn) [Example 93, 2,8-dimethyl-5-(2-(6-methylpyridin-3-yl)ethyl)-2,3,4,5-tetrahydro-1H-pyrido[4,3-b]indole 2-oxide], the “Hist. H1” value in assay [1] (inhibition profile) came to 68. Also, the “Adren. alpha2B” value in assay [2] (inhibition profile) worked out at 36. Further, the “Adren. alpha1D” value in assay [3] (inhibition profile) is listed as 19.
